Entries after “also recorded” stand apart in the source; their conditions may differ. Like-named read-outs stand apart in the source and are kept apart here.
Tests used:
[1] = target: T1, tau (Homo sapiens, UniProt P10636); assay: MCE Phenols Library screening, tau biosensor cell seeding assay (AvZ); type: cell-based; conditions: for AvZ (average z score of seeding, SDs from the mean level of seeding): 10 μM phenol in cell cultures, AD brain homogenate preincubated 16 hours, two biological replicates, positive = catalyzes seeding, negative = inhibits; for Z repl 1 / Z Repl 2: Z score; for Z repl 1 / raw data 1: replicate 1; for Z Repl 2 / raw data 2: replicate 2
Target sequence in this assay (P10636 623-695 limits assumed): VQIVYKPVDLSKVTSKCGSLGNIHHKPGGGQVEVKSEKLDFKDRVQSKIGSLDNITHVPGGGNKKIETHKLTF

[2] = target: T1, tau; assay: Tau biosensor dose titrations (HEK293T tau biosensor cells seeded with AD brain homogenate);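 as to all read-outs here: AD brain homogenate preincubated 16 h with compound, then transfected into tau biosensor cells, seeding read as tau puncta counted by imaging, normalized to cell confluence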; type: cell-based; conditions: for effect on seeding, concentrations ranging from 10 to 100 μM: AD brain homogenate seed (Fig. 2A); for dose-dependent effect of NT on tau seeding: AD brain homogenate pretreated with indicated amounts of NT (Fig. 3A); for effect on seeding at 10 μM: 10 μM final concentration on cells; for effect on seeding at 10 μM / effect on seeding at 50 μM: AD brain homogenate seed; for effect on seeding at 50 μM: 50 μM final concentration on cells; for effect on seeding, extended dose series: NT concentrations tested from 25 nM to 100 µM (fig. S6)
[3] = target: VMAT2; conditions: cited from earlier work
[4] = target: tau fibrils purified from AD brain (Homo sapiens, UniProt P10636); assay: Quantitative electron microscopy (qEM) of fibril disaggregation; type: biochemical; conditions: 75 μM; for effect on tau fibril load (qEM): 24-hour treatment, vs no inhibitor control; for reduction of tau fibril counts: preincubated 24 hours, N = 96 images
Chain of tau fibrils purified from AD brain (P10636 623-695 limits assumed): as above

[5] = tested on: intracellular DA concentrations; conditions: cited from earlier work
[6] = target: T2, P301S 4R1N tau fused with YFP (Homo sapiens, UniProt P10636, P618S)
T2 sequence (P10636 1-412 isoform P10636-7 P272S): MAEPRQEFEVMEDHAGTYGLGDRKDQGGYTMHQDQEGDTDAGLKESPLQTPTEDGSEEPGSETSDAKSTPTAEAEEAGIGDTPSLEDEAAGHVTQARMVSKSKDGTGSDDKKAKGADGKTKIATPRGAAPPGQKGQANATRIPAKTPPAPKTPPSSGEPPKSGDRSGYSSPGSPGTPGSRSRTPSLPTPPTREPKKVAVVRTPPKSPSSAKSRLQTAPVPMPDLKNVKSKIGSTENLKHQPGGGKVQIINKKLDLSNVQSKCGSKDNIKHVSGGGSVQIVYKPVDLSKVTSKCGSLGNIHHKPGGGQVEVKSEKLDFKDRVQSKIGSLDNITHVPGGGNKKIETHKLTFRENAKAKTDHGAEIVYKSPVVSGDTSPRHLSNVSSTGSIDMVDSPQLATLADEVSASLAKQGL

[7] = target: T2, P301S 4R1N tau fused with YFP; assay: cell-based
[8] = AD brain homogenate diluted to […] ptau, read-out: IC50 low tau load
[9] = average puncta of the two replicates
[10] = average Z score of the two replicates, tau seeding
[11] = average Z score of the two replicates, MCE Phenols Library screen

For NC(Cc1cccc(O)c1)C(=O)O (racemic) [DL-m-Tyrosine], which “AvZ (average z score of seeding, SDs from the mean level of seeding)” value [1] is on record?
The value was 1.911.

What about the “Z repl 1” value [1] of the same compound?
Its value is 1.84.

And the “Z Repl 2” value [1]?
Its value is 1.982.

And the av puncta ([1]; average of raw data 1 and 2)?
The av puncta was 41183.3.

And the “raw data 1” value ([1]; puncta)?
Its value is 48433.9.

And the “raw data 2” value ([1]; puncta)?
Its value is 33932.7.

And the “effect on seeding, concentrations ranging from 10 to 100 μM” value [2]?
Its value is “catalyzed seeding independently of dose at all concentrations tested”.

For CNC[C@H](O)c1ccc(O)c(O)c1 [EP, epinephrine, reference compound], which “dose-dependent effect of NT on tau seeding” value (shortened to “dose-dependent effect of NT”) [2] is on record?
The value was “inhibited seeding with the next greatest efficacy”.

For N[C@H](Cc1ccc(O)c(O)c1)C(=O)O [D-dopa], which IC50 [2, 8] is on record?
Its IC50 is 1.9 µM.

What does the source list for O=C(O)Cc1c[nH]c2ccc(O)cc12 [5-Hydroxyindole-3-acetic acid]?
AvZ (average z score of seeding, SDs from the mean level of seeding) [1]: -0.466; Z repl 1 [1]: -0.16; Z Repl 2 [1]: -0.771; av puncta [1, 9]: 14479.9; raw data 1 ([1]; puncta): 24430.2; raw data 2 ([1]; puncta): 4529.6; dose-dependent effect of NT on tau seeding [2]: inhibited tau seeding at levels comparable to EP

With COc1ccc(-c2cc(=O)c3c(O)cc(O)c(-c4cc(-c5cc(=O)c6c(O)cc(OC)cc6o5)ccc4OC)c3o2)cc1 [sciadopitysin] as the compound, how does the “Z repl 1” value [1] read?
The value was 0.092.

What about the “Z Repl 2” value [1] of the same compound?
Its value is 0.543.

What about the “av Z” value [1, 10] of the same compound?
The value was 0.317.

And the av puncta ([1]; average of raw data 1 and 2)?
Its av puncta is 23005.

And the “raw data 1” value ([1]; puncta)?
Its value is 27448.5.

What about the “raw data 2” value ([1]; puncta) of the same compound?
The value was 18561.5.

What about the “effect on seeding at 10 μM” value [2] of the same compound?
Its value is “catalyzed seeding”.

And the “effect on seeding at 50 μM” value [2]?
Its value is “inhibited seeding”.

Which results are given for NCCCC(=O)O [GABA, γ-aminobutyric acid]?
dose-dependent effect of NT on tau seeding [2]: no significant inhibitory effects on tau seeding; effect on seeding, extended dose series [2]: No inhibitory effect

Which Kd ([3]; read-out: dissociation constant (Kd) for VMAT2) does the source give for NCCc1c[nH]c2ccc(O)cc12 [serotonin, 5-hydroxytryptamine] here?
Its Kd is 3.3 µM.

What about the “dose-dependent effect of NT” value [2] of the same compound?
Its value is “no significant inhibitory effects on tau seeding”.

With N[C@@H](CCC(=O)O)C(=O)O [glutamate] as the compound, how does the “dose-dependent effect of NT” value [2] read?
Its value is “no significant inhibitory effects on tau seeding”.

And the “effect on seeding, extended dose series” value [2]?
The value was “No inhibitory effect”.

For Nc1ncnc2c1ncn2[C@@H]1O[C@H](CO)[C@@H](O)[C@H]1O [adenosine, reference compound], which “dose-dependent effect of NT” value [2] is on record?
The value was “no significant inhibitory effects on tau seeding; also recorded: dose-dependently catalyzed tau seeding”.

With O=C(O)Cc1ccc(O)c(O)c1 [DOPAC, 3,4-dihydroxyphenylacetic acid] as the compound, how does the “dose-dependent effect of NT” value [2] read?
The value was “inhibited seeding with effects similar to DA”.

Which results are given for CC(C)=CCc1c(O)cc2oc3cc(O)c(O)c(CCC(C)(C)O)c3c(=O)c2c1O [Garcinone C]?
AvZ (average z score of seeding, SDs from the mean level of seeding) [1]: 3.115; effect on seeding at 10 μM [2]: catalyzed seeding; effect on seeding at 50 μM [2]: inhibited seeding

Which “av Z” value [1, 10] does the source give for COc1c(O)cc2oc3cc(O)c(CC=C(C)C)c(O)c3c(=O)c2c1CCC(C)(C)O [garcinone D] here?
The value was 0.598.

And the “effect on seeding at 10 μM” value [2]?
Its value is “catalyzed seeding”.

What about the “effect on seeding at 50 μM” value [2] of the same compound?
The value was “inhibited seeding”.

For NC[C@H](O)c1ccc(O)c(O)c1 [NE, norepinephrine, reference compound], which IC50 ([2]; AD brain homogenate diluted to 0.11 ng/μl ptau, read-out: IC50 low tau load) is on record?
The IC50 was greater than 25 µM.

What does the source list for N[C@@H](Cc1ccc(O)c(O)c1)C(=O)O [L-dopa]?
effect on tau fibril load (qEM) [4]: significantly reduce AD tau fibrils; reduction of tau fibril counts [4]: ~75%; IC50 [2, 8]: 1.9 µM; increase of intracellular DA concentrations [5]: ~10 fold; intracellular DA concentration in neurons treated with levodopa [5]: up to 17 μM

What does the source list for NC(Cc1ccc(O)c(O)c1)C(=O)O (racemic) [DL-DOPA]?
AvZ (average z score of seeding, SDs from the mean level of seeding) [1]: 1.763; AvZ (average z score of seeding, SDs from the mean level of seeding) ([1]; listed as DL-dopa): 1.76; effect on seeding at 10 μM [2]: seeding catalyst; also recorded: catalyzed; effect on seeding, concentrations ranging from 10 to 100 μM [2]: dose-dependent inhibitor at higher concentrations

Which results are given for CC(=O)OCC[N+](C)(C)C [acetylcholine]?
dose-dependent effect of NT on tau seeding [2]: no significant inhibitory effects on tau seeding; effect on seeding, extended dose series [2]: No inhibitory effect

Which “affinity for VMAT2 relative to 5-HT” value [3] does the source give for NCCc1ccc(O)c(O)c1 [DA, dopamine, reference compound] here?
The value was “comparable or slightly lower affinity for VMAT2 than 5-HT”.

And the “effect on tau fibril load (qEM)” value [4]?
Its value is “significantly reduce AD tau fibrils”.

And the “reduction of tau fibril counts” value [4]?
The value was “about 50%”.

And the “effect on seeding at 10 μM” value [2]?
Its value is “inhibited”.

And the IC50 [2, 8]?
Its IC50 is 3.6 µM.

And the “dose-dependent effect of NT” value [2]?
Its value is “potently and dose-dependently inhibited tau seeding”.

What about the IC50 ([2]; AD brain homogenate with ptau […], read-out: IC50 high tau load) of the same compound?
Its IC50 is 9.8 µM.

What about the “effect of lower doses on seeding in dopaminergic neurons” value ([6]; around 1 μM, high tau load) of the same compound?
Its value is “catalytic effect on seeding”.

What about the “effect on seeding in dopaminergic neurons at 50 μM” value ([6]; final concentration 50 μM on cells) of the same compound?
Its value is “inhibited seeding”.

What about the IC50 [7] of the same compound?
Its IC50 is 16.6 µM.

Which results are given for COc1cc(CC(=O)O)ccc1O [Homovanillic acid]?
AvZ (average z score of seeding, SDs from the mean level of seeding) [1]: -0.054; AvZ (average z score of seeding, SDs from the mean level of seeding) ([1]; listed as HVA): −0.054; Z repl 1 [1]: -0.336; Z Repl 2 [1]: 0.228; av puncta ([1]; average of raw data 1 and 2): 18758.8; raw data 1 ([1]; puncta): 22315.8; raw data 2 ([1]; puncta): 15201.8; effect on tau fibril load (qEM) ([4]; listed as HVA): significant reduction in fibrils, though to a lesser extent

With OCC(O)c1ccc(O)c(O)c1 (centres unmarked) [4-(1,2-Dihydroxyethyl)benzene-1,2-diol] as the compound, how does the “AvZ (average z score of seeding, SDs from the mean level of seeding)” value [1] read?
The value was -0.242.

What about the “Z repl 1” value [1] of the same compound?
Its value is -0.442.

What about the “Z Repl 2” value [1] of the same compound?
The value was -0.042.

And the av puncta [1, 9]?
Its av puncta is 16682.4.

And the “raw data 1” value ([1]; raw puncta)?
Its value is 21044.7.

And the “raw data 2” value ([1]; raw puncta)?
Its value is 12320.1.

What does the source list for O=C1c2c(O)cccc2[C@@H]([C@@H]2O[C@H](CO)[C@@H](O)[C@H](O)[C@H]2O)c2cc(CO)cc(O)c21 [Aloin B]?
Z repl 1 [1]: 0.434; Z Repl 2 [1]: -0.315; av Z ([1]; average Z score of two replicates, Phenols Library screen): 0.059; av puncta ([1]; average of raw data 1 and 2): 20479; raw data 1 ([1]; puncta): 31560.5; raw data 2 ([1]; puncta): 9397.5

Which “Z repl 1” value [1] does the source give for O=C(C=Cc1ccc(O)c(O)c1)OC1CC(O)(C(=O)O)CC(O)C1OC(=O)C=Cc1ccc(O)c(O)c1 (centres unmarked) [4,5-Dicaffeoylquinic acid] here?
The value was -1.017.

What about the “Z Repl 2” value [1] of the same compound?
Its value is -0.252.

And the “av Z” value [1, 11]?
Its value is -0.635.

And the av puncta [1, 9]?
The av puncta was 12104.8.

What about the “raw data 1” value ([1]; puncta) of the same compound?
The value was 14137.8.

What about the “raw data 2” value ([1]; puncta) of the same compound?
Its value is 10071.7.

With O=C1c2cccc(O)c2C(=O)c2c(O)cccc21 [Danthron] as the compound, how does the “Z repl 1” value [1] read?
The value was -1.052.

And the “Z Repl 2” value [1]?
Its value is -0.634.

And the “av Z” value [1, 11]?
The value was -0.843.

What about the av puncta ([1]; average of raw data 1 and 2) of the same compound?
The av puncta was 9858.03.

And the “raw data 1” value ([1]; puncta)?
The value was 13720.6.

And the “raw data 2” value ([1]; puncta)?
The value was 5995.43.

With COc1c(O)cc2oc(-c3ccc(O)c(O)c3)cc(=O)c2c1O [Nepetin] as the compound, how does the “Z repl 1” value [1] read?
Its value is -0.728.

And the “Z Repl 2” value [1]?
The value was -0.807.

What about the “av Z” value [1, 11] of the same compound?
Its value is -0.768.

And the av puncta ([1]; average of raw data 1 and 2)?
The av puncta was 10877.8.

What about the “raw data 1” value ([1]; puncta) of the same compound?
The value was 17608.6.

What about the “raw data 2” value ([1]; puncta) of the same compound?
Its value is 4146.93.

What does the source list for O.O=C(O)c1cc(O)c(O)c(O)c1 [Gallic acid (hydrate)]?
AvZ (average z score of seeding, SDs from the mean level of seeding) [1]: -1.246; Z repl 1 [1]: -1.396; Z Repl 2 [1]: -1.097; av puncta ([1]; average of raw data 1 and 2): 5320.33; raw data 1 ([1]; puncta): 9587.18; raw data 2 ([1]; puncta): 1053.49

Reference: paper PMC11784839, “Monoaminergic neurotransmitters are bimodal effectors of tau aggregation” (Science Advances, 2025)
